The numbers were not newly measured in US7955629B2, “Method of feeding milk replacer with carnitine” (Land O'Lakes Purina Feed LLC, priority 2005, dated 2011), which cites them from elsewhere.

Experiment in data set [1]: not given
This is another data set of the same source.

For data set [2] the following is noted: ten month old steers; 0.6 and 1.2 grams per day; forty two day trial.
Experiment in data set [3]: not given
This is another data set of the same source.

On to `C[N+](C)(C)CC(O)CC(=O)[O-]` (centres unmarked) [carnitine], for which the “milk fat content and milk fat yield” value (dosed directly into the abomasum) is on record as “decreased”. The “digestible and metabolized energy from the diet” value (dosed directly into the rumen or abomasum) is on record as “tended to increase”. Further, the Milk production result (dosed into the rumen or abomasum) is “not affected”. In data set [1] (mature ruminally cannulated steers), the “Acetate to proprionate ratios” value was “not effected”. Moreover, the “nitrogen uptake from the rumen” value in data set [1] (supplementation at high levels in a high roughage diet) is “little effect”. Further, in data set [2], the “effectiveness of carnitine (backfat depths)” value is given as “inconclusive”. Besides, in data set [3] (heifers fed 0.6 and 1.2 grams per day, midpoint of the experiment), the “average daily gain compared to the control” value is on record as “statistically significantly greater”. Moreover, the “average daily weight gain, fed or not fed carnitine” value in data set [3] (heifers, end of the forty two day experiment) is recorded as “no statistically significant difference”.
